In patent publication US8551984B2, “Aminopyrimidines as SYK inhibitors” (Merck Sharp & Dohme Corp., priority 2009, dated 2013):

Molecular target: recombinant human SYK (GST-hSYK fusion protein) (Homo sapiens, UniProt P43405)
Assay: biochemical
[1] = rhSYK Activity (IC50), recombinant human GST-SYK 5 pM, ATP 25 μM, biotinylated substrate peptide 250 nM, HTRF, 10-dose titration

Source text: Homogeneous Time-Resolved Fluorescence (HTRF) Assay for the Recombinant Human SYK Enzyme:

In the case of `Cc1cc(Nc2nccc(C(F)(F)F)n2)cc(-c2cnc(C3(O)CCN(C(=O)CO)CC3)s2)c1` [Example 54A-5], the IC50 (RHSYK Activity, Table 54A) is reported as under 100 nM.

For `COC(=O)C1CCC(O)(c2ncc(-c3cc(CO)cc(Nc4nccc(C(F)(F)F)n4)c3)s2)CC1(C)C` (single isomer, unassigned) [Example 33A-50], the IC50 (rhSYK Activity, Table 33-A) was under 100 nM.

Compound `CO/C=C/c1ncc(-c2cc(C)cc(Nc3nccc(C(F)(F)F)n3)c2)s1` [153(A), N-(3-{2-[(E)-2-Methoxyethenyl]-1,3-thiazol-5-yl}-5-methylphenyl)-4-(trifluoromethyl)pyrimidin-2-amine] has an IC50 [1] of under 100 nM.

`Cc1cc(Nc2nccc(C)n2)cc(-c2cnc(C3(O)CCC(C(=O)O)C(C)C3C)s2)c1` (centres unmarked) [Example 113A-66] showed an IC50 (rhSYK Activity, Table 113A) of under 100 nM.

`Cc1cc(Nc2nccc(C(F)(F)F)n2)cc(-c2cnc(CN(C)C3COCC3O)s2)c1` (centres unmarked) [Example 88A-54] showed an IC50 [1] of under 100 nM.

`C=Cc1ccnc(Nc2cc(C)cc(-c3cnc(C4(O)CCC4)s3)c2)n1` [Example 104, 1-(5-{3-[(4-ethenylpyrimidin-2-yl)amino]-5-methylphenyl}-1,3-thiazol-2-yl)cyclobutanol] gave an IC50 [1] of under 100 nM.

For `NC(=O)Nc1cc(Nc2nccc(C(F)(F)F)n2)cc(-c2cnc(C3(O)CCC3)s2)c1` [Example 19-2], the IC50 (rhSYK Activity, table of Examples 19-x) was under 100 nM.

`Cc1cc(Nc2nccc(C(F)(F)F)n2)cc(-c2cnc(C3(O)CCCN(C(=O)C4CCCC(=O)N4)CC3)s2)c1` (centres unmarked) [Example 54D-92] gave an IC50 (rhSYK Activity, Table 54D) of under 100 nM.

Work on `CCOC(=O)CC(=O)N1CCC(O)(c2ncc(-c3cc(C)cc(Nc4nccc(C(F)(F)F)n4)c3)s2)CC1` [Example 54A-43] yielded an IC50 (RHSYK Activity, Table 54A) of under 100 nM.

`Cc1cc(Nc2nccc(C(F)(F)F)n2)cc(-c2cnc(C3(O)CCN(C(=O)c4c[nH]nn4)CC3)s2)c1` [Example 54A-31] was tested, and the IC50 (RHSYK Activity, Table 54A) was under 100 nM.

Compound `Cc1cc(Nc2nccc(C(F)(F)F)n2)cc(-c2cnc(CCc3ccc(C(=O)O)cc3)s2)c1` [Example 148, 4-{2-[5-(3-methyl-5-{[4-(trifluoromethyl)pyrimidin-2-yl]amino}phenyl)-1,3-thiazol-2-yl]ethyl}benzoic acid] has an IC50 [1] of under 100 nM.

Compound `COc1nc(Nc2cc(C)cc(-c3cnc(C4(O)CCC(C(=O)OC(C)(C)C)CC4)s3)c2)ncc1Cl` (centres unmarked) [116A-14] has an IC50 (rhSYK Activity, Table 116A) of 100 to 1000 nM.

`COc1nc(Nc2cc(C)cc(-c3cnc(C4(O)CCC(C(=O)O)C(C)(C)C4)s3)c2)ncc1F` (centres unmarked) [116A-28] gave an IC50 (rhSYK Activity, Table 116A) of under 100 nM.

In the case of `Cc1cc(Nc2nccc(C(C)(C)C)n2)cc(-c2cnc([C@]3(O)CC[C@@H](C(=O)O)CC3)s2)c1` [116A-6], the IC50 (rhSYK Activity, Table 116A) is reported as under 100 nM.

Compound `Cc1cc(Nc2nccc(OCCCCO)n2)cc(-c2cnc(C3(O)CCC3)s2)c1` [Example 108A-31] has an IC50 (rhSYK Activity, Table 108A) of under 100 nM.

Compound `Cc1cc(Nc2nccc(OC(C)(C)C(=O)OC(C)(C)C)n2)cc(-c2cnc(C3(O)CCC3)s2)c1` [Example 94A-25, tert-butyl 2-{[2-({3-[2-(1-hydroxycyclobutyl)-1,3-thiazol-5-yl]-5-methylphenyl}amino)-pyrimidin-4-yl]oxy}-2-methylpropanoate] has an IC50 [1] of 100 to 1000 nM.

`O=C(O)[C@H]1CC[C@](O)(c2ncc(-c3cc(Cl)cc(Nc4nccc(C(F)(F)F)n4)c3)s2)CC1` [Example 113A-3] was tested, and the IC50 (rhSYK Activity, Table 113A) was under 100 nM.

`Cc1cc(Nc2nccc(OCc3ccon3)n2)cc(-c2cnc(C3(O)CCC3)s2)c1` [Example 108A-9] showed an IC50 (rhSYK Activity, Table 108A) of under 100 nM.

Work on `Cc1cc(Nc2nccc(C3CCCC3)n2)cc(-c2cnc(C3(O)CCC3)s2)c1` [Example 107-1] yielded an IC50 [1] of under 100 nM.

Work on `C=C(F)CNC(=O)c1ncc(-c2cc(C)cc(Nc3nccc(C(F)(F)F)n3)c2)s1` [Example 87A-19] yielded an IC50 [1] of under 100 nM.

Compound `Cc1cc(Nc2nccc(C(F)(F)F)n2)cc(-c2cnc(C3(O)CCCN(C(=O)C(C)O)CC3)s2)c1` (centres unmarked) [Example 54D-14] has an IC50 (rhSYK Activity, Table 54D) of under 100 nM.

In the case of `Cc1cc(Nc2nccc(C(F)(F)F)n2)cc(-c2cnc(C(=O)NCCCN(CCO)CCO)s2)c1` [Example 87A-36], the IC50 [1] is reported as under 100 nM.

`FC(F)(F)c1ccnc(Nc2cccc(-c3cnc(C4CCOC4)s3)c2)n1` (centres unmarked) [Example 21-5] was tested, and the IC50 (rhSYK Activity, Table 21) was under 100 nM.

Work on `Cc1cc(Nc2nccc(C(F)(F)F)n2)cc(-c2cnc(C3(O)CCN(C(=O)CC(N)C(F)(F)F)CC3)s2)c1` (centres unmarked) [Example 54A-58] yielded an IC50 (RHSYK Activity, Table 54A) of under 100 nM.

For `Cc1cc(Nc2nccc(C(F)(F)F)n2)cc(-c2cnc(C3(OCCO)CCNC(=O)CC3)s2)c1` (centres unmarked) [Example 127, 5-(2-hydroxyethoxy)-5-[5-(3-methyl-5-{[4-(trifluoromethyl)pyrimidin-2-yl]amino}phenyl)-1,3-thiazol-2-yl]azepan-2-one], the IC50 [1] was under 100 nM.

With `Cc1cc(Nc2nccc(OCCn3nccn3)n2)cc(-c2cnc(C3(O)CCC3)s2)c1` [Example 108A-12] the IC50 (rhSYK Activity, Table 108A) was under 100 nM.

`COC(=O)C1CCC(O)(c2ncc(-c3cc(C)cc(Nc4ncc(F)cn4)c3)s2)CC1(C)C` (centres unmarked) [116A-22] was tested, and the IC50 (rhSYK Activity, Table 116A) was 100 to 1000 nM.

`Cc1cc(Nc2nccc(C(F)(F)F)n2)cc(-c2cnc(C3(O)CCCN(C(=O)c4cnon4)CC3)s2)c1` (single isomer, unassigned) [Example 54D-38] was tested, and the IC50 (rhSYK Activity, Table 54D) was under 100 nM.

Work on `Cc1cc(Nc2nccc(C(F)(F)F)n2)cc(-c2cnc(CNCCCN(CCO)CCO)s2)c1` [Example 88A-51] yielded an IC50 [1] of under 100 nM.
